Laboratory results as given in publication PMC7765930, “Antiproliferative Phenanthrenes from Juncus tenuis: Isolation and Diversity-Oriented Semisynthetic Modification” (Molecules, 2020).
Like-named read-outs stand apart in the source and are kept apart here.

Test system: MRC-5 human embryonal lung fibroblast cell line
Test: MTT antiproliferative assay, MRC-5
Format: cell-based
Conditions: 100–0.19 μM, non-tumoral cells; for IC50: read-out: IC50 (µM) ± SD MRC-5
Experimental: Breast cancer cell line MCF-7 (ATCC® HTB-22) and the drug-resistant subline of the human breast cancer MCF-7 (ECACC 86012803; KCR) were purchased from LGC Promochem (Teddington, UK). Both cell lines were cultured in Eagle’s Minimal Essential Medium (EMEM, containing 4.5 g/L glucose) supplemented with a non-essential amino acid mixture, a selection of vitamins, and 10% heat-inactivated fetal bovine serum. In every third passage, 0.56 µg/mL doxorubicin was added to the medium, in order to maintain the ABCB1 (P-glycoprotein) expression in KCR cells. A2780 human ovarian cancer cell line (ECACC, European Collection of Authentical Cell Culture, Sigma Cat.no. 93112519) was purchased from Merck KGaA (Darmstadt, Germany). […] The human ovarian cancer cell lines were cultured in RPMI 1640 medium supplemented with 10% heat-inactivated fetal bovine serum. […] HeLa (ATCC® CCL-2™) human cervix carcinoma cell line was purchased from LGC Promochem (Teddington, UK). The cells were cultured in Eagle’s Minimal Essential Medium (EMEM, containing 4.5 g/L glucose) supplemented with a non-essential amino acid mixture, a selection of vitamins, and 10% heat-inactivated fetal bovine serum. MRC-5 human embryonal lung fibroblast cell line (ATCC® CCL-171) was purchased from LGC Promochem, Teddington, UK. The cell line was cultured in Eagle’s Minimal Essential Medium (EMEM, containing 4.5 g/L glucose) supplemented with a non-essential amino acid mixture, a selection of vitamins, and 10% heat-inactivated fetal bovine serum. HTB-26 breast adenocarcinoma cell line was purchased from LGC Promochem, Teddington, UK. The cell line was cultured in RPMI 1640 medium supplemented with 10% heat-inactivated fetal bovine serum. T-47D (ATCC® HTB-133™) ductal carcinoma cell line was purchased from LGC Promochem, Teddington, UK. The cells were cultured in RPMI 1640 medium supplemented with 10% heat-inactivated fetal bovine serum, 2 mM L-glutamine, 1 mM Na-pyruvate, and 100 mM Hepes. All of the cells were incubated at 37 °C, in a 5% CO2 and 95% air atmosphere.
The antiproliferative effect of the compounds was determined on human breast (MCF-7, KCR, T47D, and HTB-26), cervical (HeLa), and ovarian (A2780 and A2780cis) cancer cells, and on MRC-5 (human embryonic lung fibroblast) cell lines. The adherent cells were cultured in 96-well flat-bottomed microtiter plates, using EMEM supplemented with 10% heat-inactivated fetal bovine serum or RPMI 1640 supplemented with 10% heat-inactivated fetal bovine serum, respectively. The density of the cells was adjusted to 6 × 10^3 cells in 100 μL per well, the cells were seeded for 24 h at 37 °C, with 5% CO2, and then the medium was removed from the plates, and fresh medium (100 μL per well) was added to the cells. The effects of increasing concentrations of compounds on cell proliferation were tested in 96-well flat-bottomed microtiter plates. The compounds were diluted in the appropriate medium; the dilutions of compounds were performed in separate plates and then added to the cells. The starting concentration of the compounds was 100 μM, and two-fold serial dilution was performed (concentration range: 100–0.19 μM). The culture plates were incubated at 37 °C for 72 h; at the end of the incubation period, 20 μL of MTT (thiazolyl blue tetrazolium bromide, Sigma) solution (from a stock solution of 5 mg/mL) was added to each well. After incubation at 37 °C for 4 h, 100 μL of sodium dodecyl sulfate (SDS) (Sigma) solution (10% in 0.01 M HCI) was added to each well, and the plates were further incubated, at 37 °C, overnight. Cell growth was determined by measuring the optical density (OD) at 540/630 nm, with a Multiscan EX ELISA reader (Thermo Labsystems, Cheshire, WA, USA). Mean IC50 values were obtained by best-fitting the dose-dependent inhibition curves in GraphPadPrism5 program (GraphPad Software version 5.00 for Windows, San Diego, CA, USA) from four parallel experiments for each cell line.

Question: Which results are given for `C=CC1=C(C)C(=O)C=C2CCC3=C(C=CC(=O)C3(C)OCC)C21OCC` (centres unmarked) [Compound 2a]?
Answer: IC50 (µM) ± SD MRC-5 (72 h): did not show an antiproliferative effect; IC50 (Homo sapiens, MRC5, 72 h): > 100 µM

Question: With `C=CC1=C(C)C(=O)C=C2CCC3=C(C=CC(=O)C3(C)OCC)C21OCC` (centres unmarked) [Compound 2b] as the compound, how does the IC50 (72 h) read?
Answer: 57.7 ± 0.3 µM

Question: Which results are given for `C=CC1=C(C)C(=O)C=C2CCC3=C(C=CC(=O)C3(C)OC)C21OC` (centres unmarked) [Compound 1b]?
Answer: IC50 (µM) ± SD MRC-5 (72 h): did not show an antiproliferative effect; IC50 (Homo sapiens, MRC5, 72 h): > 100 µM

Question: For `C=CC1=CC(=O)C=C2CCC3=C(C=CC(=O)C3(C)OC)C12OC` (centres unmarked) [Compound 3], which IC50 (Homo sapiens, MRC5, 72 h) is on record?
Answer: 12.2 ± 0.2 µM

Question: For `C=CC1=CC(=O)C=C2CCC3=C(C=CC(=O)C3(C)OCC)C12OCC` (centres unmarked) [Compound 4b], which IC50 (72 h) is on record?
Answer: 23.4 ± 1.3 µM

Question: `C=Cc1c(C)c(O)cc2c1-c1ccc(O)c(C)c1CC2` [juncusol] was tested. Which IC50 (Homo sapiens, MRC5, 72 h) did it give?
Answer: 40.9 ± 2 µM

Question: How did the IC50 (Homo sapiens, MRC5, 72 h) turn out when `C=Cc1cc(O)cc2c1-c1ccc(O)c(C)c1CC2` [effusol] was run?
Answer: 60.1 ± 5.1 µM

Question: Which IC50 (Homo sapiens, MRC5, 72 h) does the source give for `C=CC1=CC(=O)C=C2CCC3=C(C=CC(=O)C3(C)OCC)C12OCC` (centres unmarked) [Compound 4a] here?
Answer: 14.3 ± 0.5 µM

Question: How did the IC50 (72 h) turn out when `N.N.[Cl][Pt][Cl]` [Cisplatin, cisplatin, reference compound] was run?
Answer: 0.6 µM
